Assay results reported in PMC7311426, “An amphipathic peptide with antibiotic activity against multidrug-resistant Gram-negative bacteria” (Nature Communications, 2020).

Columns and labels:
L. monocytogenes = test: microbe, parasite or virus in culture; details: L. monocytogenes ATCC 19112; MHB; mode of 6 replicates
Method in brief: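 MICs were scored by eye after 18-20 h static incubation at 37 °C, with bacteria at 5 × 10^5 CFU mL^−1 in MHB. Peptides were serially diluted 2-fold over 12 points, top 128 or 64 μg mL^−1. CAMHB (CLSI) and 1% agarose-MHB variants were also run, at least six replicates.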

K. pneumoniae = test: microbe, parasite or virus in culture; format: cell-based, Klebsiella pneumoniae
[1] = SPR binding to model membrane lipids; design: unit: 100 × RU/MW; details: mean of n = 3
Experimental: SPR experiments were performed on a Biacore T200 using an L1 sensor chip as previously described. Small unilamellar vesicles (SUVs) were prepared in PBS by sonication and extrusion. Lipids were dissolved in ethanol-free chloroform in 25 mL round-bottom flasks. 10% (mol/mol) of E. coli lipid A, diphosphoryl (Sigma-Aldrich, Cat # L5399) was added into 1,2-dimyristoyl-sn-glycero-3-phosphocholine (DMPC) (Auspep, Cat # 850345P) solution to make lipid A–DMPC mixtures, which were then deposited as a thin film by removal of the solvent (chloroform) under reduced pressure on a rotary evaporator and dried under high vacuum for at least 2 h. PBS was then added into each flask to give a 1 mM (DMPC) suspension, which was sonicated 5 min for five times. […] The SUVs were then injected into the flow cells of the L1 sensor chip for 2000 s at a low flow rate of 2 μL min^−1 to form a bilayer membrane model on the chip surface. Then, a series of peptide solutions (30–0.33 μM in 3-fold dilution), was injected across the flow cells at a flow rate of 30 μL min^−1, having an injection phase of 180 s, and a dissociation phase of 300 s. The binding responses (RU) were normalized by molecular weight (MW) of each peptide. The equation 100 × RU/MW was used for normalization.

[2] = test system: E. coli clinical isolates; test: microbe, parasite or virus in culture; details: Worldwide isolates 2011-2013, E. coli n = 112
Method in brief: (§1)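 MIC90 from CLSI broth microdilution (M07-A9) in two clinical-isolate panels. US panel (331 isolates, 2010-2012): AA139 diluted in 0.01% acetic acid/0.1% BSA. Worldwide panel (445 isolates, 2011-2013, four regions): CAMHB, with 0.002% Tween 80 added for AA139 and polymyxin B.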

[3] = test system: K. pneumoniae clinical isolates; test: microbe, parasite or virus in culture; details: Worldwide isolates 2011-2013, K. pneumoniae n = 114
Method in brief: as §1

[4] = test system: P. aeruginosa clinical isolates; test: microbe, parasite or virus in culture; details: Worldwide isolates 2011-2013, P. aeruginosa n = 111
Method in brief: as §1

[5] = K. pneumoniae ATCC 700603 ESBL, OXA-2/SHV-18, n=2 to 6, mode or median

colistin
BMD MIC (L. monocytogenes): 16 µg/mL
MIC, Serum (50%) replicates (K. pneumoniae; K. pneumoniae ATCC 13883, type strain, BMD with 50% human serum, replicate 1): ≤0.03
MIC, Serum (50%) replicates (K. pneumoniae; K. pneumoniae ATCC 13883, type strain, BMD with 50% human serum, replicate 2): ≤0.03
MIC, Serum (50%) (K. pneumoniae; K. pneumoniae ATCC 13883, type strain, BMD with 50% human serum, where n=2 differs the higher value is recorded): ≤0.03
MIC, Serum (50%) (K. pneumoniae; K. pneumoniae ATCC 13883 type strain, n=2 to 6, mode or median): ≤ 0.03 µg/mL
MIC, Survanta (5%) (K. pneumoniae; K. pneumoniae ATCC 700603, ESBL, OXA-2/SHV-18, BMD with 5% Survanta lung surfactant, mode, or median where no mode, n=4 to 6, where n=2 differs the higher value): 0.125
MIC, Survanta (5%) replicates (K. pneumoniae; K. pneumoniae ATCC 700603, ESBL, OXA-2/SHV-18, BMD with 5% Survanta lung surfactant, replicate 1): 1
MIC, Survanta (5%) replicates (K. pneumoniae; K. pneumoniae ATCC 700603, ESBL, OXA-2/SHV-18, BMD with 5% Survanta lung surfactant, replicate 2): 0.5
MIC, Survanta (5%) replicates (K. pneumoniae; K. pneumoniae ATCC 700603, ESBL, OXA-2/SHV-18, BMD with 5% Survanta lung surfactant, replicate 3): 0.03
MIC, Survanta (5%) replicates (K. pneumoniae; K. pneumoniae ATCC 700603, ESBL, OXA-2/SHV-18, BMD with 5% Survanta lung surfactant, replicate 4): 0.06
MIC, Serum (50%) (K. pneumoniae; K. pneumoniae ATCC 700603, ESBL, OXA-2/SHV-18, BMD with 50% human serum, mode, or median where no mode, n=4 to 6, where n=2 differs the higher value): 0.125
MIC, Serum (50%) replicates (K. pneumoniae; K. pneumoniae ATCC 700603, ESBL, OXA-2/SHV-18, BMD with 50% human serum, replicate 1): 0.25
MIC, Serum (50%) replicates (K. pneumoniae; K. pneumoniae ATCC 700603, ESBL, OXA-2/SHV-18, BMD with 50% human serum, replicate 2): 0.25
MIC, Serum (50%) replicates (K. pneumoniae; K. pneumoniae ATCC 700603, ESBL, OXA-2/SHV-18, BMD with 50% human serum, replicate 3): 0.031
MIC, Serum (50%) replicates (K. pneumoniae; K. pneumoniae ATCC 700603, ESBL, OXA-2/SHV-18, BMD with 50% human serum, replicate 4): 0.063
MIC, Serum (50%) replicates (K. pneumoniae; K. pneumoniae ATCC 700603, ESBL, OXA-2/SHV-18, BMD with 50% human serum, replicate 5): 0.031
MIC, Serum (50%) replicates (K. pneumoniae; K. pneumoniae ATCC 700603, ESBL, OXA-2/SHV-18, BMD with 50% human serum, replicate 6): ≤0.031
MIC, Serum (50%) (K. pneumoniae; [5]): 0.125 µg/mL
MIC, Survanta (5%) (K. pneumoniae; [5]): 0.125 µg/mL
MIC, Survanta (5%) (K. pneumoniae; K. pneumoniae BAA-2146, NDM-1, BMD with 5% Survanta lung surfactant, mode, or median where no mode, n=4 to 6, where n=2 differs the higher value): 0.06
MIC, Survanta (5%) replicates (K. pneumoniae; K. pneumoniae BAA-2146, NDM-1, BMD with 5% Survanta lung surfactant, replicate 1): 0.125
MIC, Survanta (5%) replicates (K. pneumoniae; K. pneumoniae BAA-2146, NDM-1, BMD with 5% Survanta lung surfactant, replicate 2): 0.125
MIC, Survanta (5%) replicates (K. pneumoniae; K. pneumoniae BAA-2146, NDM-1, BMD with 5% Survanta lung surfactant, replicate 3): ≤0.03
MIC, Survanta (5%) replicates (K. pneumoniae; K. pneumoniae BAA-2146, NDM-1, BMD with 5% Survanta lung surfactant, replicate 4): ≤0.03
MIC, Survanta (5%) (K. pneumoniae; K. pneumoniae BAA-2146 NDM-1, n=2 to 6, mode or median): 0.06 µg/mL
SPR response, Mean1 (DMPC) ([1]; 1uM): 7.037
SPR response, Mean1 (DMPC) ([1]; 10uM): 58.5213

polymyxin B [PolymyxinB, reference compound]
BMD MIC (L. monocytogenes): 4 µg/mL
MIC50 [2]: 0.03 µg/mL
MIC90 [2]: 0.03 µg/mL
MIC50 [3]: 0.03 µg/mL
MIC90 [3]: 0.06 µg/mL
MIC50 [4]: 0.12 µg/mL
MIC90 [4]: 0.25 µg/mL
SPR response, Mean1 (DMPC) ([1]; 1uM): 28.3373
SPR response, Mean1 (DMPC) ([1]; 10uM): 126.211
